Laboratory results: ChEMBL document CHEMBL4190378, “Synthesis and evaluation of new 2-chloro-4-aminopyrimidine and 2,6-dimethyl-4-aminopyrimidine derivatives as tubulin polymerization inhibitors” (Bioorg Med Chem Lett, 2018)
Active and inactive are the calls of the source. The calls are words filed in the database; no cut-off is given here.

Experiments:
HeLa [1] = test: Induction of mitochondrial transmembrane potential loss in human HeLa cells assessed as JC1 dye monomers level at 500 nM incubated for 24 hrs by JC1 staining based flow cytometry (reference value: 4.12%); type: functional
HeLa [2] = test: Induction of mitochondrial transmembrane potential loss in human HeLa cells assessed as JC1 dye monomers level at 50 nM incubated for 24 hrs by JC1 staining based flow cytometry (reference value: 4.12%); type: functional
HeLa [3] = test: Induction of mitochondrial transmembrane potential loss in human HeLa cells assessed as JC1 dye monomers level at 100 nM incubated for 24 hrs by JC1 staining based flow cytometry (reference value: 4.12%); type: functional
HeLa [4] = test: Antiproliferative activity against human HeLa cells incubated for 48 hrs by MTT assay; type: functional, cell-based
HeLa [5] = test: Induction of apoptosis in human HeLa cells assessed as late apoptotic cells level at 100 nM incubated for 48 hrs by Annexin-V/FITC and propidium iodide staining based flow cytometry (reference value: 0.02%); type: functional
HeLa [6] = test: Induction of mitochondrial transmembrane potential loss in human HeLa cells assessed as JC1 dye aggregates level at 500 nM incubated for 24 hrs by JC1 staining based flow cytometry (reference value: 95.85%); type: functional
HCT-116 = test: Antiproliferative activity against human HCT116 cells incubated for 48 hrs by MTT assay; type: functional, cell-based; conditions: HCT-116, 48 h
HeLa [7] = test: Inhibition of tubulin polymerization in human HeLa cells assessed as morphological changes by measuring microtubule organisation derangement at 0.05 uM incubated for 24 hrs by laser scanning confocal microscopy; type: functional, cell-based
HeLa [8] = test: Induction of cell cycle arrest in human HeLa cells assessed as accumulation at subG1 phase at 100 nM incubated for 24 hrs by propidium iodide staining based flow cytometry; type: functional
[9] = Inhibition of porcine brain tubulin polymerization measured every 60 secs for 90 mins by DAPI dye based fluorescence assay; set-up: species or system Sus scrofa
HeLa [10] = test: Induction of mitochondrial transmembrane potential loss in human HeLa cells at 500 nM incubated for 24 hrs by JC1 staining based fluorescence microscopy; type: functional, cell-based
HeLa [11] = test: Induction of cell cycle arrest in human HeLa cells assessed as accumulation at G2/M phase at 500 nM incubated for 24 hrs by propidium iodide staining based flow cytometry; type: functional
HeLa [12] = test: Induction of apoptosis in human HeLa cells assessed as necrotic cells level at 100 nM incubated for 48 hrs by Annexin-V/FITC and propidium iodide staining based flow cytometry (reference value: 0.03%); type: functional
HeLa [13] = test: Induction of mitochondrial transmembrane potential loss in human HeLa cells at 100 nM incubated for 24 hrs by JC1 staining based fluorescence microscopy; type: functional, cell-based
HeLa [14] = test: Induction of apoptosis in human HeLa cells assessed as viable cells level at 100 nM incubated for 48 hrs by Annexin-V/FITC and propidium iodide staining based flow cytometry (reference value: 99.72%); type: functional

IC50 (HeLa [4]): 0.093 µM
IC50 (HCT-116): 0.126 µM
IC50 [9]: 5.81 µM
SMILES: COc1ccc(N(C)c2cc(C)nc(C)n2)cc1O
Activity (HeLa [1]): 48.26%
Activity (HeLa [2]): 11.47%
Activity (HeLa [3]): 28.64%
Activity (HeLa [5]): 0.05%
Activity (HeLa [6]): 51.28%
inhibition (HeLa [7]): Active
Activity (HeLa [8]): Active
Activity (HeLa [10]): Active
Activity (HeLa [11]): 55.6%
Activity (HeLa [12]): 0.07%
Activity (HeLa [13]): Active
Activity (HeLa [14]): 76.71%
